From US20140045824A1, “METHOD FOR PRODUCING COMPLEX CRYSTAL AND METHOD FOR SCREENING COMPLEX CRYSTAL” (priority 2011, published 2014)

Legend:
Assay type in all cases: physicochemical
[1] = Cocrystal screening by heating method without menthol (Comparative Example 6); parameters: key: A cocrystal was completely formed.; B: A mixture of a cocrystal and the host compound or guest compound was formed.; C: A cocrystal was not formed (a mixture of the host compound and the guest compound was formed); settings: host carbamazepine, equimolar guest, no menthol, 4 hours at 80° C.
Method: Carbamazepine and a guest compound shown in Table 4 in an equimolar amount to carbamazepine were weighed and mixed using an agate mortar. At that time, particles having a large size to an extent that they could be distinguished through visual inspection were grinded on the agate mortar. 10 mg of this mixed powder was weighed and put into a test tube and heated for 4 hours in an oven at 80° C., and the obtained solids were subjected to powder X-ray diffraction measurement and thermal analysis.

[2] = Cocrystal screening by heat melting 1-menthol (Example 2), powder X-ray diffraction and thermal analysis; parameters: key: A cocrystal was completely formed.; B: A mixture of a cocrystal and the host compound or guest compound was formed.; C: A cocrystal was not formed (a mixture of the host compound and the guest compound was formed); settings: host carbamazepine, equimolar guest, 1-menthol added, 10 hours at 80° C.
Method: Carbamazepine and a guest compound shown in Table 4 in an equimolar amount to carbamazepine were weighed and mixed using an agate mortar. […] Thereafter, the obtained mixed powder of carbamazepine, the guest compound, and 1-menthol was heated for 10 hours in an oven at 80° C., and the obtained solids were subjected to powder X-ray diffraction measurement and thermal analysis.

[3] = Cocrystal screening by slurry method (Comparative Examples 4-1 to 4-6), powder X-ray diffraction; parameters: key: A cocrystal was completely formed.; B: A mixture of a cocrystal and the host compound or guest compound was formed.; C: A cocrystal was not formed (a mixture of the host compound and the guest compound was formed); settings: host carbamazepine; for Cocrystal formation, Comparative Example 4-6: slurry in acetone; for Cocrystal formation, Comparative Example 4-6 / Cocrystal formation, Comparative Example 4-2 / Cocrystal formation, Comparative Example 4-5 / Cocrystal formation, Comparative Example 4-4 / Cocrystal formation, Comparative Example 4-1 / Cocrystal formation, Comparative Example 4-3: room temperature 7 days; for Cocrystal formation, Comparative Example 4-2: slurry in ethanol; for Cocrystal formation, Comparative Example 4-5: slurry in ethyl acetate; for Cocrystal formation, Comparative Example 4-4: slurry in toluene; for Cocrystal formation, Comparative Example 4-1: slurry in water; for Cocrystal formation, Comparative Example 4*: slurry summary: A if a cocrystal was formed in any one of Comparative Examples 4-1 to 4-6; for Cocrystal formation, Comparative Example 4-3: slurry in tetrahydrofuran
Method: 3 mg (0.0127 mmoles) of carbamazepine and a guest compound shown in Table 4 in an equimolar amount (0.0127 mmoles) to carbamazepine were weighed and put into a glass container, to which was then added 60 μL of water. These were shaken at room temperature for 7 days, and the obtained residues were subjected to powder X-ray diffraction measurement. 3 mg (0.0127 mmoles) of carbamazepine and a guest compound shown in Table 4 in an equimolar amount (0.0127 mmoles) to carbamazepine were weighed and put into a glass container, to which was then added 60 μL of ethanol. These were shaken at room temperature for 7 days, and the obtained residues were subjected to powder X-ray diffraction measurement. 3 mg (0.0127 mmoles) of carbamazepine and a guest compound shown in Table 4 in an equimolar amount (0.0127 mmoles) to carbamazepine were weighed and put into a glass container, to which was then added 60 μL of tetrahydrofuran. These were shaken at room temperature for 7 days, and the obtained residues were subjected to powder X-ray diffraction measurement. 3 mg (0.0127 mmoles) of carbamazepine and a guest compound shown in Table 4 in an equimolar amount (0.0127 mmoles) to carbamazepine were weighed and put into a glass container, to which was then added 60 μL of toluene. These were shaken at room temperature for 7 days, and the obtained residues were subjected to powder X-ray diffraction measurement. 3 mg (0.0127 mmoles) of carbamazepine and a guest compound shown in Table 4 in an equimolar amount (0.0127 mmoles) to carbamazepine were weighed and put into a glass container, to which was then added 60 μL of ethyl acetate. These were shaken at room temperature for 7 days, and the obtained residues were subjected to powder X-ray diffraction measurement. 3 mg (0.0127 mmoles) of carbamazepine and a guest compound shown in Table 4 in an equimolar amount (0.0127 mmoles) to carbamazepine were weighed and put into a glass container, to which was then added 60 μL of acetone. These were shaken at room temperature for 7 days, and the obtained residues were subjected to powder X-ray diffraction measurement.

[4] = Cocrystal screening by co-grinding method (Comparative Example 2); parameters: key: A cocrystal was completely formed.; B: A mixture of a cocrystal and the host compound or guest compound was formed.; C: A cocrystal was not formed (a mixture of the host compound and the guest compound was formed); settings: host theophylline, equimolar guest, mixed/ground in agate mortar
Method: 3 mg (0.0167 mmoles) of theophylline and a guest compound shown in Table 1 in an equimolar amount (0.0167 mmoles) to theophylline were weighed and mixed using an agate mortar. At that time, particles having a large size to an extent that they could be distinguished through visual inspection were grinded on the agate mortar. The obtained solids were subjected to powder X-ray diffraction measurement and thermal analysis.

[5] = Cocrystal screening by heat melting 1-menthol (Example 1), powder X-ray diffraction and thermal analysis; parameters: key to Cocrystal formation, Example 1: A cocrystal was completely formed.; B: A mixture of a cocrystal and the host compound or guest compound was formed.; C: A cocrystal was not formed (a mixture of the host compound and the guest compound was formed); settings: host theophylline, equimolar guest, 1-menthol added, 4 hours at 80° C.
Method: Theophylline and a guest compound shown in Table 1 in an equimolar amount to theophylline were weighed and mixed using an agate mortar. […] Thereafter, the obtained mixed powder of theophylline, the guest compound, and 1-menthol was heated for 4 hours in an oven at 80° C., and the obtained solid was subjected to powder X-ray diffraction measurement and thermal analysis.

[6] = Cocrystal screening by mixing and grinding method (Comparative Example 5); parameters: key: A cocrystal was completely formed.; B: A mixture of a cocrystal and the host compound or guest compound was formed.; C: A cocrystal was not formed (a mixture of the host compound and the guest compound was formed); settings: host carbamazepine, equimolar guest, mixed/ground in agate mortar
Text: Carbamazepine and a guest compound shown in Table 4 in an equimolar amount to carbamazepine were weighed and mixed using an agate mortar. At that time, particles having a large size to an extent that they could be distinguished through visual inspection were grinded on the agate mortar. The obtained solids were subjected to powder X-ray diffraction measurement and thermal analysis.

SMILES | Cocrystal formation, Comparative Example 6 [1] | Cocrystal formation, Example 2 [2] | Cocrystal formation, Comparative Example 4-6 [3] | Cocrystal formation, Comparative Example 4-2 [3] | Cocrystal formation, Comparative Example 4-5 [3] | Cocrystal formation, Comparative Example 4-4 [3] | Cocrystal formation, Comparative Example 4-1 [3] | Cocrystal formation, Comparative Example 4* [3] | Cocrystal formation, Comparative Example 2 [4] | Cocrystal formation, Example 1 [5] | Cocrystal formation, Comparative Example 5 [6] | Cocrystal formation, Comparative Example 4-3 [3]
CC(C)C[C@H](N)C(=O)O [L-Leucine] | C | C | C | C | C | C | C | C | C | C | C | 
O=C(O)/C=C\C(=O)O [Maleic acid] | C | A | C | A | A | A | A | A | C | A | C | A
O=C(O)CC(O)(CC(=O)O)C(=O)O [Citric acid] | B | B | C | C |  | C | C | C | C | A | C | 
NC(=O)c1cccnc1 [Nicotinamide] | B | A | B | A | A | A | C | A | C | A | C | A
